From PMC10597453, “Novel inhibitors that target bacterial virulence identified via HTS against intra-macrophage survival of Shigella flexneri” (mSphere, 2023) come the findings set out here.

Molecules are shown by their SMILES. pIC50: −log10 of the molar value. ≈ marks a conversion by molar mass, not a printed value. Where two headings read alike, the source gives them in different places.

The test system of experiment [1] is S. flexneri 2457T-nl in THP-1 macrophages. Nature of the experiment: Shigella intra-macrophage survival dose-response assay (luciferase readout).
Protocol: The experimental protocol for the Shigella intra-macrophage survival screen is divided into three time segments: (i) THP-1 macrophage and bacteria preparation 1 day prior to compound screen assay, (ii) THP-1 differentiation, invasion, gentamicin treatment, dispensing of infected cells onto plates pre-dispensed with compounds to be tested, and the beginning of their incubation performed on the same day, and (iii) dispensing of the Nano-Luc substrate and luminescence readout after 18 hours of incubation.
The assay was adapted to the 1,536-well plate format for the HTS. A multidrop dispenser with the small tube metal tip cassette (Thermo Fisher Scientific) was used to seed 5 µL of the cell suspension to plates pre-dispensed with compounds to be tested that were transferred to RT 1–1.5 hours before adding infected cells. Plates were incubated for 18 hours at 37°C in a humidified atmosphere with 5% CO2.
After incubation, the bacterial count is quantified by luminescence readout. Luminescence correlated linearly with the number of viable bacteria. The Nano-Luc substrate solution was prepared according to the manufacturer (Nano-Glo Luciferase Assay System, Promega, Madison, WI, USA). A multidrop dispenser with the small tube metal tip cassette (Thermo Fisher Scientific) was used to dispense 2 µL of substrate per well, and plates were stored in the dark prior to reading. Luminescence was read (0.1 s/well) on a microplate reader (EnVision, PerkinElmer) after 30 minutes of incubation at RT.
The dose-response assay was performed following the above protocol using different plate formats.
The next experiment has as its system S. flexneri 2457T. The experiment can be described thus: Shigella antibacterial assay (resazurin). Format: cell-based, Shigella flexneri. To be noted: for MIC90: S. flexneri 2457T, resazurin assay. The method, then:
An antibacterial assay against S. flexneri 2457T was performed according to the previously described protocol ([40]). The antibacterial assay was used to determine the MIC90 values of potential inhibitors for S. flexneri 2457T. The assay measures the effect of compounds on the bacteria using resazurin (Thermo Fisher Scientific) measurement as surrogate of bacterial viability. Briefly, to perform the extracellular dose responses, compounds were pre-dispensed in DMSO, and threefold serial dilutions were made for each compound into 384-well plate format. Bacterial inoculum for the assay was prepared in MH medium, resulting at 1 × 10^6 CFU/mL, and 5 µL of this culture was dispensed per well. Then, plates were incubated at 37°C overnight. The resazurin reagent (10 µL) was added to each well followed by an incubation at RT and darkness for 3 hours. The fluorescence intensity of the assay plates was measured using microplate reader (EnVision, PerkinElmer). For MIC90 determination, data were normalized by using DMSO at a final concentration of 0.5% as the negative control (100% bacterial growth) and moxifloxacin at a final concentration of 20 µM as the positive control (0% bacterial growth). The experiment was done in duplicate.

Setting [2] is: Shigella flexneri, THP-1, read-out: Shigella Intra-macrophage Survival IC50.

On to `CC[C@H]1OC(=O)[C@H](C)[C@@H](O[C@H]2C[C@@](C)(OC)[C@@H](O)[C@H](C)O2)[C@H](C)[C@@H](O[C@@H]2O[C@H](C)C[C@H](N(C)C)[C@H]2O)[C@](C)(O)C[C@@H](C)CN(C)[C@H](C)[C@@H](O)[C@]1(C)O` [Azithromycin, azithromycin, reference compound], for which the negative logarithm of the IC50 (pIC50) in experiment [1] (setting [2]) was 7.10. The compound further showed an MIC90 in the experiment with S. flexneri 2457T (Shigella flexneri) of 10 µM (≈ 7.49 µg/mL).

As for `CO/N=C(\C(=O)N[C@@H]1C(=O)N2C(C(=O)O)=C(CSc3nc(=O)c(=O)[nH]n3C)CS[C@H]12)c1csc(N)n1` [Ceftriaxone, ceftriaxone, reference compound], the pIC50 in experiment [1] (setting [2]) is 8.00. The MIC90 against S. flexneri 2457T (Shigella flexneri) turned out to be 0.1 µM (≈ 0.0555 µg/mL).

As to `O=C(O)c1cn(C2CC2)c2cc(N3CCNCC3)c(F)cc2c1=O` [Ciprofloxacin, ciprofloxacin, reference compound], the negative-log IC50 (pIC50) in experiment [1] (setting [2]) is 8.15. For the same compound, the MIC90 in the experiment on S. flexneri 2457T (Shigella flexneri) is 0.07 µM (≈ 0.0232 µg/mL).

Turning to `CC1(C)S[C@@H]2[C@H](/N=C/N3CCCCCC3)C(=O)N2[C@H]1C(=O)O` [Mecillinam, mecillinam, reference compound], in experiment [1] (setting [2]), the pIC50 is 6.15. This compound also had an MIC90 with S. flexneri 2457T (Shigella flexneri) of 0.2 µM (≈ 0.0651 µg/mL).

`COc1ccc(-c2ccn(CC[C@](C)(C(=O)NO)S(C)(=O)=O)c(=O)c2)c(F)c1` [PF-5081090, reference compound]: in experiment [1] (read-out: Shigella Intra-macrophage Survival IC50, commercially available antibiotics, luciferase assay), the negative logarithm of the IC50 (pIC50) was 7.22. The compound further gave an MIC90 with S. flexneri 2457T of 0.2 µM (≈ 0.0825 µg/mL).

As for `CC(C)(C)C(=O)OCOC(=O)[C@@H]1N2C(=O)[C@@H](/N=C/N3CCCCCC3)[C@H]2SC1(C)C` [Pivmecillinam, pivmecillinam], the negative logarithm of the IC50 (pIC50) in experiment [1] (setting [2]) was 6.05. Further, the “MIC relative to survival IC50 (times higher)” value in the experiment with S. flexneri 2457T (MIC vs intra-macrophage survival IC50) was “very similar”. In addition, the MIC90 against S. flexneri 2457T (Shigella flexneri) came out at 1 µM (≈ 0.44 µg/mL).
